According to the NIST ThermoML archive (doi:10.1016/j.fluid.2004.09.013):
Numbers after ± are expanded uncertainties.

Settings: for mass density: Fluid (supercritical or subcritical phases), Vibrating tube method; for vapor or sublimation pressure: Liquid

C=C(C)C [2-methylpropene]
Settings	mass density [kg/m3]
328.22 K, 14997 kPa	579.49 ± 1.2
328.22 K, 19998 kPa	587.62 ± 1.3
328.22 K, 24989 kPa	594.87 ± 1.3
328.22 K, 29993 kPa	601.47 ± 1.3
328.22 K, 35002 kPa	607.53 ± 1.4
333.22 K, 1303 kPa	542.34 ± 1.1
333.22 K, 4983 kPa	552.65 ± 1.1
333.22 K, 9997 kPa	564.28 ± 1.2
333.22 K, 15001 kPa	574.03 ± 1.2
333.22 K, 19998 kPa	582.51 ± 1.3
333.22 K, 25001 kPa	590.09 ± 1.3
333.22 K, 30012 kPa	596.94 ± 1.3
333.22 K, 34994 kPa	603.17 ± 1.4
338.22 K, 1401 kPa	534.97 ± 1.1
338.22 K, 4983 kPa	545.83 ± 1.1
338.22 K, 9985 kPa	558.2 ± 1.2
338.22 K, 14988 kPa	568.49 ± 1.2
338.22 K, 20002 kPa	577.4 ± 1.2
338.22 K, 24995 kPa	585.25 ± 1.3
338.22 K, 30004 kPa	592.35 ± 1.3
338.22 K, 34989 kPa	598.79 ± 1.4
338.23 K, 39972 kPa	604.69 ± 1.4
343.22 K, 1507 kPa	527.38 ± 1.1
343.22 K, 4990 kPa	538.84 ± 1.1
343.22 K, 14984 kPa	562.89 ± 1.2
343.22 K, 19992 kPa	572.21 ± 1.2
343.22 K, 24986 kPa	580.39 ± 1.3
343.23 K, 10002 kPa	552.06 ± 1.2
343.23 K, 29994 kPa	587.74 ± 1.3
343.23 K, 35010 kPa	594.44 ± 1.4
348.23 K, 1624 kPa	519.55 ± 1.1
348.23 K, 4982 kPa	531.6 ± 1.1
348.23 K, 9996 kPa	545.8 ± 1.1
348.23 K, 15003 kPa	557.28 ± 1.2
348.23 K, 19988 kPa	566.99 ± 1.2
348.23 K, 24994 kPa	575.52 ± 1.3
348.23 K, 29995 kPa	583.14 ± 1.3
348.23 K, 34998 kPa	590.02 ± 1.4
353.23 K, 1750 kPa	511.45 ± 1.1
353.23 K, 4999 kPa	524.22 ± 1.1
353.23 K, 9995 kPa	539.41 ± 1.1
353.23 K, 15002 kPa	551.55 ± 1.2
353.23 K, 19988 kPa	561.74 ± 1.2
353.23 K, 24993 kPa	570.61 ± 1.3
353.23 K, 29992 kPa	578.51 ± 1.3
353.23 K, 35002 kPa	585.65 ± 1.4
358.23 K, 1880 kPa	503.02 ± 1
358.23 K, 4995 kPa	516.51 ± 1.1
358.23 K, 9992 kPa	532.9 ± 1.1
358.23 K, 14994 kPa	545.74 ± 1.2
358.23 K, 19987 kPa	556.44 ± 1.2
358.23 K, 25000 kPa	565.71 ± 1.3
358.23 K, 29992 kPa	573.87 ± 1.3
358.23 K, 34986 kPa	581.23 ± 1.4
363.23 K, 2029 kPa	494.29 ± 1
363.23 K, 4995 kPa	508.53 ± 1.1
363.23 K, 9990 kPa	526.24 ± 1.1
363.23 K, 14992 kPa	539.87 ± 1.2
363.23 K, 19984 kPa	551.08 ± 1.2
363.23 K, 25007 kPa	560.75 ± 1.3
363.23 K, 29987 kPa	569.21 ± 1.3
363.23 K, 34996 kPa	576.84 ± 1.4
368.23 K, 2186 kPa	485.16 ± 1
368.23 K, 4992 kPa	500.2 ± 1.1
368.23 K, 9984 kPa	519.43 ± 1.1
368.23 K, 14990 kPa	533.92 ± 1.2
368.23 K, 29990 kPa	564.54 ± 1.3
368.24 K, 19992 kPa	545.7 ± 1.2
368.24 K, 25001 kPa	555.77 ± 1.2
368.24 K, 35000 kPa	572.42 ± 1.4
373.23 K, 2351 kPa	475.57 ± 0.99
373.23 K, 29996 kPa	559.86 ± 1.3
373.23 K, 34996 kPa	567.99 ± 1.3
373.24 K, 4995 kPa	491.52 ± 1
373.24 K, 9984 kPa	512.47 ± 1.1
373.24 K, 14991 kPa	527.88 ± 1.1
373.24 K, 19998 kPa	540.27 ± 1.2
373.24 K, 25004 kPa	550.75 ± 1.2
373.24 K, 39995 kPa	575.36 ± 1.4
378.24 K, 2531 kPa	465.5 ± 0.98
378.24 K, 4999 kPa	482.41 ± 1
378.24 K, 9996 kPa	505.39 ± 1.1
378.24 K, 14983 kPa	521.73 ± 1.1
378.24 K, 19996 kPa	534.78 ± 1.2
378.24 K, 25004 kPa	545.72 ± 1.2
378.24 K, 29995 kPa	555.17 ± 1.3
378.24 K, 34988 kPa	563.54 ± 1.3
383.24 K, 2689 kPa	454.37 ± 0.95
383.24 K, 4984 kPa	472.67 ± 1
383.24 K, 9995 kPa	498.07 ± 1.1
383.24 K, 14986 kPa	515.53 ± 1.1
383.24 K, 20004 kPa	529.26 ± 1.2
383.24 K, 25006 kPa	540.65 ± 1.2
383.24 K, 29986 kPa	550.43 ± 1.3
383.24 K, 34992 kPa	559.1 ± 1.3
388.24 K, 2901 kPa	443.01 ± 0.94
388.24 K, 4994 kPa	462.48 ± 0.98
388.24 K, 9997 kPa	490.56 ± 1.1

Settings	vapor or sublimation pressure [kPa]
328.93 K	704.67 ± 2.8
337.82 K	871.92 ± 3.4
348.26 K	1100.8 ± 4.2
357.33 K	1343.9 ± 5.1
364.25 K	1545.1 ± 5.8
371.52 K	1784.7 ± 6.7
380.19 K	2094.5 ± 7.7
386.12 K	2332.7 ± 8.6
